Like-named read-outs stand apart in the source and are kept apart here.
What was measured:
bovine rod opsin = molecular target: T1, bovine rod opsin (Bos taurus, UniProt P02699); assay: Gt activation assay; assay type: biochemical
T1 construct: Constitutive activity of bovine opsin in disc membranes; from tissue; host or cells: bovine ROS membranes (opsin membranes and Gt both from bovine ROS)
Method: Gt was extracted and purified from frozen bovine ROS membranes as described in Preparation of Opsin Membranes. The intrinsic increase in the fluorescence from Gtα was measured with a L55 luminescence spectrophotometer (PerkinElmer Life Sciences) using an excitation and emission wavelengths of 300 and 345 nm, respectively. […] DMSO-treated opsin membranes were used to obtain a baseline for the basal activity of opsin. The molar ratio of opsin to Gt was 1:10, with opsin at a concentration of 100 nM and Gt at 1000 nM. […] This step was followed by the addition of 300 μM GTPγS (Sigma-Aldrich) to determine the GTPγS-induced complex dissociation and corresponding fluorescence changes. Gt activation rates were determined and plotted for the first 100 s of the Gt activation assay.

mouse P23H opsin mutant = mouse P23H opsin mutant (Mus musculus, UniProt P15409, P23H); assay: β-Gal fragment complementation assay: rescue of P23H opsin transport from ER to plasma membrane, U2OS(PLC-EA/P23H-PK) cells; assay type: cell-based; settings: for Emax: U2OS; for dependence of activity on light exposure of cells: cells exposed to light vs dark
Text: U2OS(PLC-EA/P23H-PK) cells. A U2OS stable cell line was generated by DiscoveRx, Inc. (Fremont, CA, USA) for the β-Gal fragment complementation assay used in the small molecule HTS for rescue of P23H opsin transport. U2OS cells that continually express P23H-PK and PLC-EA fusion proteins were generated. Briefly, this small subunit of […] (PK fragment) was fused to the C-terminal of the mouse P23H opsin mutant, while the large EA fragment, a subunit of […], was fused with PLC, a plasma membrane anchored peptide. Both constructs were subcloned by DicoveRx, Inc. and transferred into U2OS cells by viral infections. Positive clones were selected under treatment with hygromycin and geneticin.
Briefly, U2OS(PLC-EA/P23H-PK) cells were suspended in assay medium at 3×10^5 cells mL^−1. The cell suspension was dispensed into 384-well plates (Greiner Bio-one, Monroe, NC, USA) at 20 μL per well, with a Multidrop dispenser (Thermo Scientific, Waltham, MA, USA). Plates with cells then were centrifuged at 200 g for 15 s before incubation at 37° C. with 5% CO2. Plates were removed 24 h later for treatment with tested compounds. A total of 248 plates containing 79,080 compounds from three small molecule libraries were paired with an equal number of assay plates with cultured cells. Due to a limited capacity, these plates were assayed in seven batches. An average of 56.3 nL of 10 mM compound in DMSO was dispensed into each well from column 3 to 22 of paired assay plates using a 50 nL 384-pintool system, such that the final concentration of each compound was 22.52 μM on average. […] Each assay plate was shaken for 5 s before further incubation at 37° C. with 5% CO2. […] Assay plates were incubated in the dark for 60-90 min, and luminescence was read from each assay plate with an Envision microplate reader (PerkinElmer) during a 0.1 s per well integration time. The mean and s.d. of readouts in column 2 of each plate were calculated as Mean0% and SD0%, whereas the average and s.d. of readouts in column 23 were calculated as Mean100% and SD100%. Equation 1: Activity scores (%)=(RLUcp−Mean0%)/(Mean100%−Mean0%)×100%, where RLUcp is the relative luminescence unit derived for cells treated with a compound. Equation 2: Z′-factor=1-3×(SD0%+SD100%)/(Mean100%−Mean0%); Equation 3: signal-to-background (S/B) ratio=Mean100%/Mean0%. Activities of all tested compounds were registered with their compound ID by GeneData Screener (Genedata, Basel, Switzerland) and Pipeline Pilot software (Accelrys, San Diego, CA, USA). Hits, cherry-picked from a separate stock dose-dependent activity test, were selected with an activity score cutoff at 20%. Activity of each hit was tested again with the β-Gal fragment complementation assay in a 10-dose series with each dose tested in triplicate. The 10 doses tested were 80, 40, 20, 10, 5, 2.5, 1.25, 0.625, 0.313, and 0.156 μM. Dose-dependent curves of each hit compound were fitted with GeneData and Origin software.
Detailed synthetic steps are described in FIG. 18. […] YC-002-YC-021 were purchased from commercial vendors including Enamine LLC (Monmouth Jct., NJ, USA), Matrix Scientific (Columbia, SC, USA) and Tokyo Chemical Industry Co., Ltd. (Portland, OR, USA). […] Activities of YC compounds were tested with the β-Gal fragment complementation assay, as described in a prior section. All YC compounds were tested at 10 doses, each in triplicate: 80, 40, 20, 10, 5, 2.5, 1.25, 0.625, 0.313, and 0.156 μM.

bovine opsin = molecular target: T2, bovine opsin (Bos taurus, UniProt P02699); assay: Isorhodopsin pigment regeneration of opsin in ROS disc membranes (absorption spectroscopy); assay type: biochemical; settings: for competition with 9-cis-retinal for isorhodopsin regeneration (absorption at 495 nm): with 5 μM 9-cis-retinal, simultaneously or sequentially
T2 construct: ROS membranes were isolated from bovine retinas under dim red light; from tissue; host or cells: bovine retina rod outer segment (ROS) membranes, bleached with hydroxylamine
T2 sequence (P02699 whole entry): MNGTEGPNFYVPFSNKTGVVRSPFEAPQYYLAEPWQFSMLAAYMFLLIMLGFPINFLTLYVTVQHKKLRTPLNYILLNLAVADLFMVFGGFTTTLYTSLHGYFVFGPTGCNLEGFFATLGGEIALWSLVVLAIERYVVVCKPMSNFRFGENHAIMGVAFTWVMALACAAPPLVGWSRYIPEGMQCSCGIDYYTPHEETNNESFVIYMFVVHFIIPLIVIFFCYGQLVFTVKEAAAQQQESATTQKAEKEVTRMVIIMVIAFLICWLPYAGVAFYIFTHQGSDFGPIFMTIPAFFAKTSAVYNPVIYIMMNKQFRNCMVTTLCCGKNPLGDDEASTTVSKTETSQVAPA
Method: ROS membranes were isolated from bovine retinas under dim red light. To remove membrane associated proteins, ROS membranes were washed with a hypotonic buffer composed of 5 mM bis-tris propane (BTP) and 1 mM EDTA, pH 7.5, followed by gentle homogenization with subsequent centrifugation at 25,000 g for 30 min. This procedure was repeated four times. The final membrane pellet was suspended in 10 mM sodium phosphate buffer, pH 7.0, and 50 mM hydroxylamine to a 3 mg mL^−1 concentration of rhodopsin, placed on ice and illuminated with a 150 Watt bulb for 30 min. Membranes were pelleted by centrifugation at 16,000 g for 5 min and then washed four times with 10 mM sodium phosphate buffer, pH 7.0, and 2% bovine serum albumin followed by 4 washes with 10 mM sodium phosphate buffer, pH 7.0, and 2 washes with 20 mM BTP, pH 7.5, and 100 mM NaCl. The concentration of opsin was measured with a UV-visible spectrophotometer and quantified using the absorption coefficient ε280 nm=81,200 M^−1 cm^−1.
ROS membranes containing opsin were suspended in buffer composed of 20 mM BTP, pH 7.5, and 100 mM NaCl at a final concentration of 2.5 μM. […] Membranes then were solubilized with 20 mM DDM for 10 min at RT and UV-visible spectra of these samples were measured. To follow the kinetics of isorhodopsin regeneration, opsin membranes were treated with 0, 20 or 60 μM YC-001 for 15 min at RT. […] UV-visible spectra of the samples were measured every 2 min until 2 h of reaction time at RT. Each condition was repeated three times. The time course of isorhodopsin regeneration was fitted by a second order exponential decay and apparent half-lives were obtained at the time when reaction reached half of the end-point product.
Alternatively, opsin incubated with the above ligands was purified by 1D4-immunoaffinity chromatography. […] After washing, opsin samples were eluted by addition of 1D4 peptide ([…]) (SEQ ID NO: 1) to the above buffer and their spectra were measured with a UV-visible spectrophotometer.

[1] = Table 1, scores relative to 9-cis-retinal, read-out: β-Gal fragment complementation assay Activity score (%) EC50
[2] = Table 1, experimental maximum, read-out: β-Gal fragment complementation assay Activity score (%) Max (Exp)
[3] = Table 1, fitted maximum, read-out: β-Gal fragment complementation assay Activity score (%) Max (fit)

T1 sequence (P02699 whole entry): as above

SMILES	ln(kinitial), rate of Gt activation of regenerated isorhodopsin upon illumination (bovine rod opsin; 40 μM 9-cis-retinal alone)	EC50 (mouse P23H opsin mutant; [1])	Emax (mouse P23H opsin mutant; [2])	Emax (mouse P23H opsin mutant; [3])	dependence of activity on light exposure of cells (mouse P23H opsin mutant)	activity in rescuing P23H opsin transport (in words) (mouse P23H opsin mutant)	competition with 9-cis-retinal for isorhodopsin regeneration (absorption at 495 nm) (bovine opsin)	ln(kinitial), initial rate of Gt activation for opsin (bovine rod opsin; 40 μM compound, basal opsin activity)	ln(kinitial), rate of Gt activation of regenerated isorhodopsin upon illumination (bovine rod opsin; co-treated with 40 μM 9-cis-retinal and 40 μM YC-001)	time to maximum activity (mouse P23H opsin mutant; FIG. 1F, 40 μM YC-001)	EC50 (mouse P23H opsin mutant; HTS hit confirmation, FIG. 1E, read-out: potency)	EC50 (mouse P23H opsin mutant; Table 5, more than one site modified, read-out: Potency)	Emax (mouse P23H opsin mutant; read-out: Efficacy (%))	effect of co-treatment with scriptaid on P23H opsin transport (mouse P23H opsin mutant; YC-001 and scriptaid co-treatment)	effect of co-treatment with 9-cis-retinal (mouse P23H opsin mutant; with 5 μM 9-cis-retinal, FIG. 1G)	total amount of regenerated isorhodopsin pigment at the end of the reaction (bovine opsin; FIG. 4d)	kinetics of isorhodopsin pigment regeneration (bovine opsin; YC-001 then 9-cis-retinal, FIG. 4d)	reversibility of interaction with opsin (bovine opsin; after opsin/isorhodopsin purification)
CC1=C(/C=C/C(C)=C\C=C\C(C)=C\C=O)C(C)(C)CCC1 [9-cis-retinal, reference compound]	−4.6	2.7 µM	123%	159%	required that cells be incubated in the dark													
O=C(CCCCCN1C(=O)c2cccc3cccc(c23)C1=O)NO [Scriptaid, reference compound]		3.09 µM	98%	98.2%		strong activity	does not compete with 9-cis-retinal											
O=C1OCC(c2ccc(Cl)s2)=C1c1cccs1 [YC-001]		8.7 µM	310%	310%	not affected		less isorhodopsin was generated	−6.1	−4.9	≤ 15 h	7.8 µM	8.39 µM	248%	synergistic effect	No additive effect	didn't affect the total amount	slowed down the kinetics of pigment regeneration	reversible

Source: patent US12251373B2, “Compounds and methods of treating retinal degeneration” (CASE WESTERN RESERVE UNIVERSITY, priority 2017, dated 2025)
